What was measured:
[1] = Determination of the minimum toxic dose (i.v.) in rats; assay type: in vivo; conditions: 215 mg/kg i.v., observed for one week
Protocol: I.v. maximum doses of 215 mg/kg of the test substances (dissolved in 0.1 N aqueous NaOH solution, whose pH had been adjusted to 7.1) were administered to groups of 10 rats each of 250 g body weight (age 5 to 6 weeks). From the time of administration, the animals were carefully observed for 5 hours for clinically recognizable signs of toxicity. Moreover, they were observed twice daily until one week had passed. After expiry of this week, each individual animal was completely dissected and all organs were examined macroscopically. If death or severe toxic symptoms was observed, increasingly smaller doses were administered to further rats until toxic symptoms no longer occured. The lowest dose which caused death or severe toxic symptoms was determined to be the minimum toxic dose.

[2] = tested on: diuresis/natriuresis in volume-loaded rats; assay: In-vivo effect on diuresis/natriuresis in volume-loaded rats; design: species or system male Wistar rats; conditions: 60 min collection
Protocol: The in-vivo activity was investigated in volume-loaded rats. In this experiment, a high cardiac filling pressure was produced by an infusion of isotonic sodium chloride solution, as a consequence of which ANP release and, as a result, diuresis/natriuresis occurred.
The experiments were carried out using male Wistar rats having a body weight of 200-400 g. Under neuroleptic analgesia (fentanyl; Hypnorm®, manufacturer Janssen), a catheter was tied into the right femoral vein for the background infusion and the volume loading with isotonic sodium chloride solution. After opening the abdomen, a second catheter was inserted in the bladder and the urethra was tied off so that a measurement of urinary volume, natriuresis and kaliuresis was possible.
The abdomen was closed again, and the animals received a continuous infusion of sodium chloride solution (0.5 ml/100 g of body weight) over the total experimental period of 2 hours. After an equilibration period of 30 minutes, urine samples were collected three times in each case over a period of 10 minutes in a preliminary phase before test substance administration. These preliminary values ("predrug" values) were determined in order to check that a continuous urine flow was taking place in the test animals.
The solutions comprising the test substances were then administered intravenously (bolus injection in the femoral vein) or orally (by means of stomach tube) to groups of 10 rats in each case. For both administration forms, one control animal group in each case received only placebo solutions which contained no active compound. 5 minutes after i.v. administration or 120 minutes after oral administration of the substances, the rats were loaded i.v. with an increased volume of sodium chloride solution (2 ml/100 g of body weight in 2 minutes) and the urine was collected over a period of 60 minutes. The amounts of urine produced in this period were determined, and the sodium and potassium contents contained therein were measured. From the amounts of urine produced, the increase in excretion which took place under volume loading is read off compared with the preliminary values.
In the following Table 1, the increases in urine excretion which have taken place under volume loading after administration of the test substances are indicated in % relative to the urine excretion which has taken place under volume loading after administration of placebo. Furthermore, the amounts of sodium and potassium excreted under volume loading after test substance administration are also indicated in % of the amounts of sodium and potassium excreted under volume loading after administration of placebo. The example numbers in Tables 1 and 2 relate to the subsequent synthesis examples.

[3] = tested on: endothelin-converting enzyme (ECE); assay: In-vivo ECE inhibitory action: blood pressure increase induced by BIG-ET in rats; design: species or system male CD rats
Protocol: ET is an endogenous strongly vasoconstrictory active substance. An increase in the ET level leads to a blood pressure increase. On infusion of BIG-ET, a blood pressure increase takes place to the extent at which ET is formed from this by ECE-catalysed cleavage. As a measure of the ECE-inhibitory action of the substances, their inhibitory action on the blood pressure increase induced by infusion of BIG-ET was determined.
The experiments were carried out using male CD® rats from Charles River Wiga having a body weight of 220-280 g. Under ketamine/xylazine anaesthesia, a catheter for substance administration was tied into the left jugular vein and a second for the measurement of the blood pressure was tied into the left carotid artery of the animals. After a recovery time of 30 minutes, the test substance was administered intravenously (i.v.) or intraduodenally (i.d.) to the animals as a solution. After administration of the test substances, the animals each received BIG-ET in a dose of 0.5 nmole/kg intravenously. The period between administration of the test substance and the administration of BIG-ET was 5 minutes in each case on i.v. administration, 15 minutes in each case on i.d. administration of the test substances of Example Nos. 18 and 22, and 30 minutes in each case on i.d. administration of the test substances of Example Nos. 8 and 20. During the next 30 minutes, the systolic and the diastolic blood pressure were recorded every 5 minutes. With untreated animals, the infusion of 0.5 nmol/kg of big endothelin leads reproducibly to a drastic blood pressure increase, which lasts about 30 minutes. The maximum of the blood pressure increase is reached after about 5 minutes.
In the following Table 2, the maximum increase in the blood pressure after BIG-ET administration is indicated for control animals treated with placebo solution and for animals which have been pretreated with the test substance solutions in different doses.

[4] = target: neutral endopeptidase (NEP) (E.C. 3.4.24.11) (Homo sapiens, UniProt P08473); assay: In-vitro NEP inhibitory action (hydrolytic degradation of Met-encephalin); assay type: biochemical; conditions: purified NEP, Met-encephalin substrate, pH 7.4, 37° C.; read-out: IC50 value for NEP inhibition
Protocol: In this test, the measure of the inhibitory activity of the substances determined was their IC50 value. The IC50 value of a test substance having enzyme-inhibitory activity is that concentration of the test substance at which 50% of the enzymatic activity of the NEP is blocked.
To carry out the test, respective 100 μl samples of various incubation solutions comprising 10 ng of purified NEP (E.C. 3.4.24.11) and different amounts of test substance and 20 μl substrate (Met-encephalin) and 50 mM tris buffer (tris(hydroxymethyl)aminomethane/HCl, pH 7.4) were prepared. […]
The incubation solutions were incubated for 30 minutes at 37° C. in a shaking water bath. […] The stopped incubation solution was then centrifuged at 12,000×g for 3 minutes, and the concentrations of unreacted substrate and of hydrolysis products formed by the enzymatic reaction were determined in the supernatant. For this purpose, samples of the respective supernatants were separated by high-pressure liquid chromatography (HPLC) on hydrophobicized silica gel, and the products of the enzymatic reaction and unreacted substrate were determined photometrically at a wavelength of 205 nm. […]
The IC50 value of the test substances was calculated in a known manner from the concentrations of hydrolysis products and unreacted substrate measured in the different samples.

[5] = 30 μmol/kg i.d., 30 min before BIG-ET 0.5 nmole/kg i.v., control 40
[6] = 30 μmol/kg i.d., 30 min before BIG-ET 0.5 nmole/kg i.v., control 61
[7] = 30 μmol/kg i.d., 15 min before BIG-ET 0.5 nmole/kg i.v., control 40
[8] = 30 μmol/kg i.d., 15 min before BIG-ET 0.5 nmole/kg i.v., control 61

Chain of neutral endopeptidase (NEP) (E.C. 3.4.24.11) (P08473 whole entry, species assumed): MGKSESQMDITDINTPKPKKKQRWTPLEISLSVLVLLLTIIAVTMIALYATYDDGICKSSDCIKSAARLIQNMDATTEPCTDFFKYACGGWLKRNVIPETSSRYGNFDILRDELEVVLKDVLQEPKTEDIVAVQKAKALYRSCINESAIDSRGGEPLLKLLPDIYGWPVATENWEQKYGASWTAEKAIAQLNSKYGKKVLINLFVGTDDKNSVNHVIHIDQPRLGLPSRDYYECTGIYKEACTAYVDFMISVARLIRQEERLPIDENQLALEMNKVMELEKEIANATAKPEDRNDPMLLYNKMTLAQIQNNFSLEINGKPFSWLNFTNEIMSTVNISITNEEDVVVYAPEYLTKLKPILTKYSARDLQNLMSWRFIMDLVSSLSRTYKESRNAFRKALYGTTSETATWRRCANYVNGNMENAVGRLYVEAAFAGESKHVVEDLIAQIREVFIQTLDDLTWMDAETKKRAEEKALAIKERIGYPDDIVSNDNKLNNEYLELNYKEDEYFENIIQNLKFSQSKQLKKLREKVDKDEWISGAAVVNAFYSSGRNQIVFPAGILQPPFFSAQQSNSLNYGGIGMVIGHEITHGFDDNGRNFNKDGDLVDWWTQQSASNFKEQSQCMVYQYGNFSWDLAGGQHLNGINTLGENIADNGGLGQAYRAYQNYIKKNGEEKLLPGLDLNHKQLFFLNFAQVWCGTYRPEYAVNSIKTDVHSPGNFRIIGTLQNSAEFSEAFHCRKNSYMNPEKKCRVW

Structure (SMILES)	Blood pressure increase after BIG-ET administration, diastolic pressure (maximum) [3, 5]	Blood pressure increase after BIG-ET administration, systolic pressure (maximum) [3, 6]	Increase in urine excretion under volume loading after administration of test substance in % relative to the urine excretion under volume loading after administration of placebo ([2]; 30.0 μmole/kg p.o.)	K excretion under volume loading: amount excreted after administration of test substance in % of the amount excreted after administration of placebo ([2]; 30.0 μmole/kg p.o.)	Na excretion under volume loading: amount excreted after administration of test substance in % of the amount excreted after administration of placebo ([2]; 30.0 μmole/kg p.o.)	Blood pressure increase after BIG-ET administration, diastolic pressure (maximum) [3, 7]	Blood pressure increase after BIG-ET administration, systolic pressure (maximum) [3, 8]	further results
O=C(O)CN1C(=O)[C@@H](NC(=O)C2(CP(=O)(O)O)CCCC2)CCc2ccccc21 [Example 2, (3S)-3-(1-Phosphonomethylcyclopentane-1-carbonylamino)-2,3,4,5-tetrahydro-2-oxo-1H-1-benzazepine-1-acetic acid]								signs of toxicity at maximum dose [1]: no significant signs of toxicity; Increase in urine excretion under volume loading after administration of test substance in % relative to the urine excretion under volume loading after administration of placebo ([2]; 6.0 μmole/kg i.v.): 117%; K excretion under volume loading: amount excreted after administration of test substance in % of the amount excreted after administration of placebo ([2]; 6.0 μmole/kg i.v.): 116%; Na excretion under volume loading: amount excreted after administration of test substance in % of the amount excreted after administration of placebo ([2]; 6.0 μmole/kg i.v.): 147%; Increase in urine excretion under volume loading after administration of test substance in % relative to the urine excretion under volume loading after administration of placebo ([2]; 20.0 μmole/kg i.v.): 149%; K excretion under volume loading: amount excreted after administration of test substance in % of the amount excreted after administration of placebo ([2]; 20.0 μmole/kg i.v.): 182%; Na excretion under volume loading: amount excreted after administration of test substance in % of the amount excreted after administration of placebo ([2]; 20.0 μmole/kg i.v.): 246%; Blood pressure increase after BIG-ET administration, diastolic pressure (maximum) ([3]; 1 mg/kg i.v., 5 min before BIG-ET 0.5 nmole/kg i.v., control 32): 23 mm Hg; Blood pressure increase after BIG-ET administration, systolic pressure (maximum) ([3]; 1 mg/kg i.v., 5 min before BIG-ET 0.5 nmole/kg i.v., control 65): 38 mm Hg; Blood pressure increase after BIG-ET administration, diastolic pressure (maximum) ([3]; 3 mg/kg i.v., 5 min before BIG-ET 0.5 nmole/kg i.v., control 32): 14 mm Hg; Blood pressure increase after BIG-ET administration, systolic pressure (maximum) ([3]; 3 mg/kg i.v., 5 min before BIG-ET 0.5 nmole/kg i.v., control 65): 27 mm Hg; Blood pressure increase after BIG-ET administration, diastolic pressure (maximum) ([3]; 10 mg/kg i.v., 5 min before BIG-ET 0.5 nmole/kg i.v., control 32): 0.4 mm Hg; Blood pressure increase after BIG-ET administration, systolic pressure (maximum) ([3]; 10 mg/kg i.v., 5 min before BIG-ET 0.5 nmole/kg i.v., control 65): -1 mm Hg; IC50 [4]: 1.7 nM
CCOP(=O)(CC1(C(=O)N[C@H]2CCc3ccccc3N(CC(=O)OC(C)(C)C)C2=O)CCCC1)OCc1ccccc1 (stereo partly drawn) [Example 8, tert-Butyl (3S)-3-(1-benzylethylphosphonomethylcyclopentane-1-carbonylamino)-2,3,4,5-tetrahydro-2-oxo-1H-1-benzazepine-1-acetate]	26 mm Hg	25 mm Hg						
CCOC(=O)CN1C(=O)[C@@H](NC(=O)C2(CP(=O)(O)O)CCCC2)CCc2ccccc21 [Example 13, Ethyl (3S)-3-(1-phosphonomethylcyclopentane-1-carbonylamino)-2,3,4,5-tetrahydro-2-oxo-1H-1-benzazepine-1-acetate]			168%	87%	128%			
CCOP(=O)(CC1(C(=O)N[C@H]2CCc3ccccc3N(CC(=O)OC(C)(C)C)C2=O)CCCC1)OCOC(=O)C(C)(C)C (stereo partly drawn) [Example 18, tert-Butyl (3S)-3-[1-(pivaloyloxymethylethylphosphono-methyl)cyclopentane-1-carbonylamino]-2,3,4,5-tetrahydro-2-oxo-1H-benzazepine-1-acetate]						17 mm Hg	19 mm Hg	
CC(C)(C)OC(=O)CN1C(=O)[C@@H](NC(=O)C2(CP(=O)(O)O)CCCC2)CCc2ccccc21 [Example 20, tert-Butyl (3S)-3-[1-phosphonomethylcyclopentane-1-carbonylamino)-2,3,4,5-tetrahydro-2-oxo-1H-1-benzazepine-1-acetate]	37 mm Hg	50 mm Hg						
CCOP(=O)(O)CC1(C(=O)NC2CCc3ccccc3N(CC(=O)O)C2=O)CCCC1 (stereo not shown) [Example 22]			127%	106%	161%	21 mm Hg	36 mm Hg	

— patent US5952327A, “Phosphonic acid-substituted benzazepinone-n-acetic acid derivatives process for their preparation and pharmaceutical compositions comprising them” (Solvay Pharmaceuticals GmbH, priority 1997, dated 1999)
